# What was measured:
# rats with SAH = experiment: Effect on rCBF when given after SAH has been established; format: in vivo, rat; details: 1 mg/kg i.v. 30 min after induction of SAH
# Protocol: Animals. Experiments were performed on male Sprague-Dawley rats (9-12 weeks old), purchased from Harlan Sprague-Dawley, Inc. (Indianapolis, Ind.). The rats were housed in an Animal Care Facility at the Medical College of Wisconsin, which is approved by the American Association for the Accreditation of Laboratory Animal Care. All protocols involving animals received approval by the Animal Care Committee of the Medical College of Wisconsin.
# Surgical preparation. Rats were anesthetized with ketamine (Ketaject® 20 mg/kg i.m.) and thiobutabarbital sodium (Inactin® 50 mg/kg i.p.). […] Endtidal partial pressure of carbon dioxide (pCO2) was controlled at 38 mmHg by adjusting the minute ventilation according to the reading of an CO2 analyzer (Capstar-100 IITC, Inc., Woodland Hills, Calif.). Blood samples were collected at the beginning and end of the experiment and analyzed using a blood gas analyzer (ABL 300, Radiometer, Copenhagen, Denmark) to validate the endtidal pCO2 readings. […]
# Cerebral blood flow (CBF) was continuously measured using laser Doppler flowmetry through a thinned cranial window. […] A PF 103 laser Doppler flow (LDF) probe was positioned over the cranial window and CBF was monitored using a PF-3 laser Doppler flowmeter (Perimed, Stockholm, Sweden).
# 0.3 ml of blood was injected into the Cistema Magna of rats to induce SAH. […] The CBF data are expressed as percentage change from control.
# [1] = system: rat 20-HETE synthesizing enzyme; experiment: Synthesis of 20-HETE in rat renal microsomes ([14C]-AA); format: biochemical; details: 1.5 nM, lowest dose tested
# Protocol: Microsomes were prepared by differential centrifugation as previously described. […] The reactions were terminated by acidification to pH 3.5 using 0.1 mol/L formic acid and extracted with ethyl acetate. Metabolites were separated using a 25 cm×2 mm i.d. (Supelco Inc., Bellefonte, Pa.) C18-reverse phase HPLC column and a linear elution gradient ranging from acetonitrile:water: acetic acid (50/50/0.1) to acetonitrile:acetic acid (100/0.1) over a 40 min period. The radioactive products were monitored using a radioactive flow detector (Model 120, Radiomatic Instrument Co., Tampa, Fla.).
# canine neutrophils = experiment: Formation of 20-HETE by canine neutrophils; format: cell-based; details: Canis lupus familiaris, Neutrophil, read-out: IC50, formation of 20-HETE by canine neutrophils; 2×10^7 cells in dog CSF, 2 hours, n=4
# Protocol: Experiments were performed to determine the cell type in canine blood responsible for the formation of 20-HETE. Experiments were performed using 4 male Beagle dogs. The dogs were anesthetized with sodium pentobarbital (30 mg/kg, i.v.). Venous blood sample was drawn and immediately mixed with 1:9 volume of trisodium citrate (3.8%) as an anticoagulant. Neutrophils were prepared to 98% purity using a percoll gradient technique. CSF was drawn from the Cistema Magna by using a 20 gauge needle. Only clear CSF sample without blood was used for the present experiment. The CSF was oxygenated with mixed gas (95% O2, 5% CO2) for 30 min. Neutrophils were suspended in the oxygenated CSF and cell numbers were adjusted to 2×10^6, 6.3×10^6, and 2×10^7. Whole blood (20 μl), red blood cells (20 μl) or neutrophils were incubated in the oxygenated CSF (180 μl) including 1 mM NADPH and [^3H]-AA at 37° C. for 2 hrs. The reaction was terminated by the addition of formic acid. One hundred percent acetonitrile (200 μl) was added to the reaction buffer to adjust final concentration to 50% for HPLC separation. […] The labeled products formed were monitored using a radioactive flow detector (raytest GmbH, Straubenhardt, Germany).
# The reactions were terminated by addition of formic acid. […] The labeled metabolites were monitored using a radioactive flow detector ramona 93 (raytest GmbH, Straubenhardt, Germany).
# PGH1 synthase = biological target: T1, PGH1 synthase (Ovis aries, UniProt P05979); experiment: COX activity (conversion of AA to PGE2); format: biochemical, ram; details: 10^−6 M
# T1 construct: the purified enzyme from ram seminal vesicles PGH1 synthase; purchased Cayman Chemical Co., Ann Arbor, Mich; host or cells: ram seminal vesicles (tissue-purified)
# T1 sequence (P05979 25-600): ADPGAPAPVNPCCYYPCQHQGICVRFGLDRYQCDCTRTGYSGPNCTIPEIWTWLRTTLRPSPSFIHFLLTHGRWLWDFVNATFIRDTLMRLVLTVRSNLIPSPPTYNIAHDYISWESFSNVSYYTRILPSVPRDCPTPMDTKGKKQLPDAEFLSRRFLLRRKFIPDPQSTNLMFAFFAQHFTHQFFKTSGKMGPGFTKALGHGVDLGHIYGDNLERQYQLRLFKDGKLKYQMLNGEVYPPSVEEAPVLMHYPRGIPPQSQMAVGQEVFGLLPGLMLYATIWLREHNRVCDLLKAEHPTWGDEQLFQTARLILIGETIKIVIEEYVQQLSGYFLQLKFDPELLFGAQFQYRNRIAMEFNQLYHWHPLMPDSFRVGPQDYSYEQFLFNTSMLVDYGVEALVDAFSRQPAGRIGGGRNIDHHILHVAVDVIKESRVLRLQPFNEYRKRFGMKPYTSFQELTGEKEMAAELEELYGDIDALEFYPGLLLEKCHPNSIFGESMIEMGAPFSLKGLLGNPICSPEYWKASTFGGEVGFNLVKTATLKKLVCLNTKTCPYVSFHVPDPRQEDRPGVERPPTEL
# Protocol: Reaction mixtures were incubated at 37° C. for 2 min before the addition of AA and for 2 min thereafter. All samples were run in duplicate. Amounts of PGE2 were determined by EIA after 100-400 times dilution with Tris buffer.
smiles,measurement,setting,value
"CCCCc1ccc(N=CNO)c(C)c1 [HET0016, N-hydroxy-N′-(4-butyl-2-methylphenyl)-formamidine]",time after treatment at which cerebral blood flow was back to the control value,rats with SAH,70 min
same,inhibition of rat 20-HETE synthesizing enzymes,[1],about 20%
same,IC50,canine neutrophils,10.2 ± 1.3 nM
same,inhibition at 1 µM,PGH1 synthase,20%

# Source: US7307101B2, “Use of 20-HETE synthesizing enzyme inhibitors as therapy for cerebral vascular disease” (MCW Research Foundation, Inc., priority 2000, dated 2007)
